Values quoted from earlier work in patent publication US20250151766A1, “SWEETENED COMPOSITION AND PREPARATION METHOD AND USE THEREOF” (GUILIN LAYN NATURAL INGREDIENTS CORP., priority 2022, published 2025).

Details: general statement in the description

For `O=C(CO)[C@@H](O)[C@H](O)[C@H](O)CO` [fructose], the sweetness is given as 1.5 ×.
